Measured values as given in patent US20220168427A1 (Ranok Therapeutics (Hangzhou) Co. Ltd., priority 2019, published 2022).

Experiments:
HSP90α = HSP90α (Homo sapiens, UniProt P07900); experiment: HSP90α Binding Fluorescent Polarization (FP) Assay; conditions: competition with FITC-geldanamycin; read-out: HSP90 Binding Potency
Summary of the method: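 Duplicate wells held BSA buffer, FITC-geldanamycin tracer, compound (3-fold dilution plate spanning 40 μM–2.0 nM) and recombinant protein diluted to 28 μg/ml before addition. Polarization read at 30, 60 and 120 min, 25 °C. Background-corrected mP values gave IC50 through a four-parameter inhibitor-response fit.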

BRD4 (BD1+BD2) = biological target: T1, BRD4 (BD1+BD2) (Homo sapiens, UniProt O60885); conditions: read-out: BRD4 Binding Potency
T1 construct: 1.8 μg/ml recombinant BRD4 (BD1+BD2 domains) protein

MV4-11 cells = experiment: MV4-11 Cell Cytotoxicity Assay; format: cell-based, human; conditions: human, MV4-11 cells, CCK-8
Text: % Inhibition=100−(D−B)/(S−B)*100%.
S: The absorbance of the maximum (cells with DMSO)
B: The absorbance of the minimum (medium with DMSO)

Row | SMILES | IC50 (HSP90α) | IC50 (BRD4 (BD1+BD2)) | IC50 at 72 h (MV4-11 cells)
1 | Cc1cc(-c2nnc(C(=O)NCCN3CCCCC3)n2-c2ccc(CN3CCN(CC4CCN(C(=O)C[C@@H]5N=C(c6ccc(Cl)cc6)c6c(sc(C)c6C)-n6c(C)nnc65)CC4)CC3)cc2)c(O)cc1O [Compound 124, (S)-4-(4-((4-((1-(2-(4-(4-chlorophenyl)-2,3,9-trimethyl-6H-thieno[3,2-f][1,2,4]triazolo[4,3-a][1,4]diazepin-6-yl)acetyl)piperidin-4-yl)methyl)piperazin-1-yl)methyl)phenyl)-5-(2,4-dihydroxy-5-methylphenyl)-N-(2-(piperidin-1-yl)ethyl)-4H-1,2,4-triazole-3-carboxamide, trifluoroacetic acid] | 100 to 1000 nM | < 100 nM | < 100 nM
2 | Cc1sc2c(c1C)C(c1ccc(Cl)cc1)=N[C@@H](CCN(C)CCOCCOc1ccc(-n3c(O)nnc3-c3cc(C(C)C)c(O)cc3O)cc1)c1nnc(C)n1-2 [Compound 71, (S)-4-(4-(4-(2-(2-((2-(4-(4-chlorophenyl)-2,3,9-trimethyl-6H-thieno[3,2-f][1,2,4]triazolo[4,3-a][1,4]diazepin-6-yl)ethyl)(methyl)amino)ethoxy)ethoxy)phenyl)-5-hydroxy-4H-1,2,4-triazol-3-yl)-6-isopropylbenzene-1,3-diol, trifluoroacetic acid] | 100 to 1000 nM | > 1000 nM | 100 to 1000 nM
3 | COc1cccc(-c2cc(C(=O)Nc3ccc(-c4ccc(OC5CCN(C(=O)CNC(=O)C[C@@H]6N=C(c7ccc(Cl)cc7)c7c(sc(C)c7C)-n7c(C)nnc76)CC5)cc4OCCN(C)C)cc3)ccc2OC)c1 [Compound 138] | > 1000 nM | < 100 nM | < 100 nM
4 | Cc1sc2c(c1C)C(c1ccc(Cl)cc1)=N[C@@H](CC(=O)NCCOCCOCCN[C@@H](C)C(=O)N[C@H](C(=O)N1CCC[C@H]1C(=O)Nc1snnc1-c1ccccc1)C1CCCCC1)c1nnc(C)n1-2 [Compound 128, (S)-1-((2S,5S)-17-((S)-4-(4-chlorophenyl)-2,3,9-trimethyl-6H-thieno[3,2-f][1,2,4]triazolo[4,3-a][1,4]diazepin-6-yl)-2-cyclohexyl-5-methyl-4,16-dioxo-9,12-dioxa-3,6,15-triazaheptadecanoyl)-N-(4-phenyl-1,2,3-thiadiazol-5-yl)pyrrolidine-2-carboxamide] | > 1000 nM | > 1000 nM | > 1000 nM
5 | CCn1c(=O)/c(=C2\Sc3ccccc3N2C)s/c1=C\c1cccc[n+]1CCCNC(=O)C[C@@H]1N=C(c2ccc(Cl)cc2)c2c(sc(C)c2C)-n2c(C)nnc21 [Compound 7, 1-(3-(2-((6S)-4-(4-chlorophenyl)-2,3,9-trimethyl-6H-thieno[3,2-f][1,2,4]triazolo[4,3-a][1,4]diazepin-6-yl)acetamido)propyl)-2-((Z)-((E)-3-ethyl-5-(3-methylbenzo[d]thiazol-2(3H)-ylidene)-4-oxothiazolidin-2-ylidene)methyl)pyridin-1-ium chloride] | > 1000 nM | < 100 nM | 100 to 1000 nM
6 | CCc1cc(-c2nnc(C(=O)NCCN(CC)CC)n2-c2ccc(CN3CCN(CC4CCN(C(=O)C[C@@H]5N=C(c6ccc(Cl)cc6)c6c(sc(C)c6C)-n6c(C)nnc65)CC4)CC3)cc2)c(O)cc1O [Compound 104, (S)-4-(4-((4-((1-(2-(4-(4-chlorophenyl)-2,3,9-trimethyl-6H-thieno[3,2-f][1,2,4]triazolo[4,3-a][1,4]diazepin-6-yl)acetyl)piperidin-4-yl)methyl)piperazin-1-yl)methyl)phenyl)-N-(2-(diethylamino)ethyl)-5-(5-ethyl-2,4-dihydroxyphenyl)-4H-1,2,4-triazole-3-carboxamide, trifluoroacetic acid] | 100 to 1000 nM | < 100 nM | < 100 nM
7 | CCc1cc(-c2nnc(O)n2-c2ccc(CN3CCC(C(=O)N4CCC(CNCC[C@@H]5N=C(c6ccc(Cl)cc6)c6c(sc(C)c6C)-n6c(C)nnc65)CC4)CC3)cc2)c(O)cc1O [Compound 68, (4-(((2-((6S)-4-(4-chlorophenyl)-2,3,9-trimethyl-6H-thieno[3,2-f][1,2,4]triazolo[4,3-a][1,4]diazepin-6-yl)ethyl)amino)methyl)piperidin-1-yl)(1-(4-(3-(5-ethyl-2,4-dihydroxyphenyl)-5-hydroxy-4H-1,2,4-triazol-4-yl)benzyl)piperidin-4-yl)methanone, trifluoroacetic acid] | 100 to 1000 nM | 100 to 1000 nM | 100 to 1000 nM
8 | CCc1cc(C(=O)N2Cc3ccc(CN4CCN(C(=O)C[C@@H]5N=C(c6ccc(Cl)cc6)c6c(sc(C)c6C)-n6c(C)nnc65)CC4)cc3C2)c(O)cc1O [Compound 142, (S)-2-(4-(4-chlorophenyl)-2,3,9-trimethyl-6H-thieno[3,2-f][1,2,4]triazolo[4,3-a][1,4]diazepin-6-yl)-1-(4-((2-(5-ethyl-2,4-dihydroxybenzoyl)isoindolin-5-yl)methyl)piperazin-1-yl)ethan-1-one] | 100 to 1000 nM | 100 to 1000 nM | 100 to 1000 nM
9 | COc1cccc(-c2cc(C(=O)Nc3ccc(-c4ccc(OC5CCN(C(=O)CNC(=O)C[C@@H]6N=C(c7ccc(Cl)cc7)c7c(sc(C)c7C)-n7c(C)nnc76)CC5)cc4O)cc3)ccc2OC)c1 [Compound 134] | > 1000 nM | > 1000 nM | > 1000 nM
10 | CCN(Cc1ccc(OCCCNC(=O)C[C@@H]2N=C(c3ccc(Cl)cc3)c3c(sc(C)c3C)-n3c(C)nnc32)cc1)Cc1ccc(-n2c(O)nnc2-c2cc(C(C)C)c(O)cc2O)cc1 [Compound 100, (S)-2-(4-(4-chlorophenyl)-2,3,9-trimethyl-6H-thieno[3,2-f][1,2,4]triazolo[4,3-a][1,4]diazepin-6-yl)-N-(3-(4-(((4-(3-(2,4-dihydroxy-5-isopropylphenyl)-5-hydroxy-4H-1,2,4-triazol-4-yl)benzyl)(ethyl)amino)methyl)phenoxy)propyl)acetamide, formic acid] | 100 to 1000 nM | 100 to 1000 nM | < 100 nM
11 | CCc1cc(-c2nnc(O)n2-c2ccc(CN3CCC(C(=O)N4CCC(CNC(=O)C[C@@H]5N=C(c6ccc(Cl)cc6)c6c(sc(C)c6C)-n6c(C)nnc65)C4)CC3)cc2)c(O)cc1O (stereo partly drawn) [Compound 77, 2-((6S)-4-(4-chlorophenyl)-2,3,9-trimethyl-6H-thieno[3,2-f][1,2,4]triazolo[4,3-a][1,4]diazepin-6-yl)-N-((1-(1-(4-(3-(5-ethyl-2,4-dihydroxyphenyl)-5-hydroxy-4H-1,2,4-triazol-4-yl)benzyl)piperidine-4-carbonyl)pyrrolidin-3-yl)methyl)acetamide, trifluoroacetic acid] | 100 to 1000 nM | < 100 nM | 100 to 1000 nM
12 | Cc1sc2c(c1C)C(c1ccc(Cl)cc1)=N[C@@H](CC(=O)NCCOCc1ccc(-n3c(O)nnc3-c3cc(C(C)C)c(O)cc3O)cc1)c1nnc(C)n1-2 [Compound 52, 2-((6S)-4-(4-chlorophenyl)-2,3,9-trimethyl-6H-thieno[3,2-f][1,2,4]triazolo[4,3-a][1,4]diazepin-6-yl)-N-(2-((4-(3-(2,4-dihydroxy-5-isopropylphenyl)-5-hydroxy-4H-1,2,4-triazol-4-yl)benzyl)oxy)ethyl)acetamide] | < 100 nM | > 1000 nM | 100 to 1000 nM
13 | Cc1cc(-c2nnc(O)n2-c2ccc(CN3CCN(CC4CCN(C(=O)C[C@@H]5N=C(c6ccc(Cl)cc6)c6c(sc(C)c6C)-n6c(C)nnc65)CC4)CC3)cc2)c(O)cc1O [Compound 9, 2-((6S)-4-(4-chlorophenyl)-2,3,9-trimethyl-6H-thieno[3,2-f][1,2,4]triazolo[4,3-a][1,4]diazepin-6-yl)-1-(4-((4-(4-(3-(2,4-dihydroxy-5-methylphenyl)-5-hydroxy-4H-1,2,4-triazol-4-yl)benzyl)piperazin-1-yl)methyl)piperidin-1-yl)ethanone, trifluoroacetic acid] | 100 to 1000 nM | < 100 nM | < 100 nM
14 | Cc1sc2c(c1C)C(c1ccc(Cl)cc1)=N[C@@H](CC(=O)NCC(=O)NCC1CCN(C(=O)C3CCN(Cc4ccc(-n5c(O)nnc5-c5cc(C(C)C)c(O)cc5O)cc4)CC3)CC1)c1nnc(C)n1-2 [Compound 46, (S)-2-(4-(4-chlorophenyl)-2,3,9-trimethyl-6H-thieno[3,2-f][1,2,4]triazolo[4,3-a][1,4]diazepin-6-yl)-N-(2-(((1-(1-(4-(3-(2,4-dihydroxy-5-isopropylphenyl)-5-hydroxy-4H-1,2,4-triazol-4-yl)benzyl)piperidine-4-carbonyl)piperidin-4-yl)methyl)amino)-2-oxoethyl)acetamide, trifluoroacetic acid] | < 100 nM | < 100 nM | < 100 nM
15 | Cc1nn(-c2ccc(C(N)=O)c(NCCOCCC3CCN(C(=O)C[C@@H]4N=C(c5ccc(Cl)cc5)c5c(sc(C)c5C)-n5c(C)nnc54)CC3)c2)c2c1C(=O)CC(C)(C)C2 [Compound 23, 2-((2-(2-(1-(2-((6S)-4-(4-chlorophenyl)-2,3,9-trimethyl-6H-thieno[3,2-f][1,2,4]triazolo[4,3-a][1,4]diazepin-6-yl)acetyl)piperidin-4-yl)ethoxy)ethyl)amino)-4-(3,6,6-trimethyl-4-oxo-4,5,6,7-tetrahydro-1H-indazol-1-yl)benzamide, trifluoroacetic acid] | > 1000 nM | > 1000 nM | 100 to 1000 nM
